Measured values from ChEMBL document CHEMBL5506024, “Multitarget μ-Opioid Receptor Agonists─Neuropeptide FF Receptor Antagonists Induce Potent Antinociception with Reduced Adverse Side Effects” (J Med Chem, 2024).
Active and inactive are the calls of the source. The calls are words filed in the database; no cut-off is given here. Numbered stars: 1 amine (or outer) side, 2 acyl side, 3 side chain; on linkers, the order of the positions; unused ones are H or OH. Square brackets hold non-standard residues; d marks the D form. Peptide text beside a SMILES is read from it. Nva(5-(4-Bn-piperidin-1-yl)) = N[C@@H](CCCN1CCC(Cc2ccccc2)CC1)C(=O)O; X1 = O=C1[C@@H](N[*:1])Cc2ccccc2CN1CCC(=O)[*:2]; Dmt = Cc1cc(O)cc(C)c1C[C@H](N)C(=O)O

Key:
Mu-type opioid receptor [1] = biological target: T1, Mu-type opioid receptor (Homo sapiens, UniProt P35372); assay: Agonist activity at human Rluc8-tagged MOP expressed in HEK293 cells coexpressing eYFP-tagged beta-arrestin-2 assessed as beta-arrestin-2 recruitment incubated for 5 mins by luminometer analysis; assay type: functional, cell-based; details: hek293
[2] = Half life in mouse at 10 mg/kg, sc measured upto 24 hrs by LC-MS/MS analysis; assay type: ADME, organism-based; details: in vivo
[3] = Cmax in mouse at 10 mg/kg, sc measured upto 24 hrs by LC-MS/MS analysis; assay type: ADME, organism-based; details: in vivo
Mu-type opioid receptor [4] = biological target: T1, Mu-type opioid receptor; assay: Agonist activity at human MOP expressed in HEK293 cells coexpressing GloSensor-20F assessed as inhibition of forskolin-induced cAMP accumulation relative to control; assay type: functional, cell-based; details: filed as agonist
[5] = Drug metabolism in human plasma assessed as H-Aba-betaAla-Bpa-Phe-NH2 formation measured upto 270 mins by LC-MS analysis; assay type: ADME, cell-free; details: 4.5 h
[6] = biological target: KiSS-1 receptor (Homo sapiens) (UniProt Q969F8); assay: Agonist activity at human GPR54 expressed in CHO cells assessed as intracellular calcium release upto 10 uM by Fluo-4 AM dye based calcium mobilization assay; assay type: functional, cell-based
[7] = Tmax in mouse at 10 mg/kg, sc measured upto 24 hrs by LC-MS/MS analysis; assay type: ADME, organism-based; details: in vivo
[8] = biological target: T2, Neuropeptide FF receptor 1 (Homo sapiens, UniProt Q9GZQ6); assay: Antagonist potency at human NPFFR1 expressed in CHO cell membrane assessed as inhibition of NPVF induced cAMP response incubated for 1 hr by Topcount counting method; assay type: functional, cell membranes; details: read-out: pA2 (converted)
[9] = biological target: T3, Pyroglutamylated RF-amide peptide receptor (Homo sapiens) (UniProt Q96P65); assay: Antagonist activity at human GPR103 expressed in CHO cells assessed as intracellular calcium release upto 10 uM by Fluo-4 AM dye based calcium mobilization assay; assay type: functional, cell-based
T3 sequence (whole entry): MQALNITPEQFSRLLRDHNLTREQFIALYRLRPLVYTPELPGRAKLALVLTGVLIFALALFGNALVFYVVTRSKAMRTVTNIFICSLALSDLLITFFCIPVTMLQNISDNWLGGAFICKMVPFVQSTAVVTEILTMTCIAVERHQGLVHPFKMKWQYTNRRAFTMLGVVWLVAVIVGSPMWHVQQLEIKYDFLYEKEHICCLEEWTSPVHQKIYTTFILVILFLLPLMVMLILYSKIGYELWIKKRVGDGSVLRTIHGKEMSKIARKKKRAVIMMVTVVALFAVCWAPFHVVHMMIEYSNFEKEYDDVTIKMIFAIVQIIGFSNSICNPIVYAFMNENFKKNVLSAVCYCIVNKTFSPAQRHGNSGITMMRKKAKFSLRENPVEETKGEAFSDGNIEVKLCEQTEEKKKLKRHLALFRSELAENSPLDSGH

Mus musculus = assay: Antinociceptive activity in mouse at 2.5 to 10 mg/kg, sc measured after 6 hrs by tail immersion test; assay type: functional, organism-based; details: dose 2.5-10 mg/kg
[10] = Drug concentration in mouse plasma at 10 mg/kg, sc measured after 2 hrs by LC-MS/MS analysis; assay type: ADME, organism-based
[11] = Drug metabolism in human plasma assessed as H-Dmt-D-Pro-OH formation measured upto 270 mins by LC-MS analysis; assay type: ADME, cell-free; details: 4.5 h
[12] = biological target: T4, Neuropeptide FF receptor 2 (Homo sapiens, UniProt Q9Y5X5); assay: Antagonist activity at human NPFFR2 expressed in CHO cell membrane assessed as inhibition of NPVF induced cAMP response at 5 uM incubated for 1 hr by Topcount counting method relative to control; assay type: functional, cell membranes; design: scale not given: the % may be the effect or the level left; details: filed as antagonist
Mu-type opioid receptor [13] = biological target: T1, Mu-type opioid receptor; assay: Agonist activity at human MOP expressed in HEK293 cells coexpressing GloSensor-20F assessed as inhibition of forskolin-induced cAMP accumulation; assay type: functional, cell-based
[14] = biological target: T5, Prolactin-releasing peptide receptor (Homo sapiens) (UniProt P49683); assay: Antagonist activity at human GPR10 expressed in CHO cells assessed as intracellular calcium release upto 10 uM by Fluo-4 AM dye based calcium mobilization assay; assay type: functional, cell-based
T5 sequence (whole entry): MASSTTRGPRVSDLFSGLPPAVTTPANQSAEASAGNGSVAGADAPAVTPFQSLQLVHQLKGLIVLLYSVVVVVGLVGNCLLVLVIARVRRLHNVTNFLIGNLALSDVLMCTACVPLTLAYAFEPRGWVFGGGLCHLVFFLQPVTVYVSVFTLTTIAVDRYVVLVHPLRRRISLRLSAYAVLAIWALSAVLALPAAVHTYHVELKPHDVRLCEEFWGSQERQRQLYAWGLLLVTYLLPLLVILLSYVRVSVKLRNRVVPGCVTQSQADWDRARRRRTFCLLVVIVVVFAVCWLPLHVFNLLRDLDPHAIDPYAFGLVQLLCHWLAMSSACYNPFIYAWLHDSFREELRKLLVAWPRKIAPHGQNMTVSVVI

[15] = biological target: T4, Neuropeptide FF receptor 2; assay: Displacement of [125I]-1DMeNPFF from human NPFFR2 expressed in CHO cell membrane at 0.05 uM incubated for 1 hr by Topcount counting method relative to control; assay type: cell membranes; details: filed as antagonist
[16] = biological target: T2, Neuropeptide FF receptor 1; assay: Displacement of [125I]-1DMeNPFF from human NPFFR1 expressed in CHO cell membrane incubated for 1 hr by Topcount counting method; assay type: cell membranes
[17] = biological target: T5, Prolactin-releasing peptide receptor (Homo sapiens); assay: Agonist activity at human GPR10 expressed in CHO cells assessed as intracellular calcium release upto 10 uM by Fluo-4 AM dye based calcium mobilization assay; assay type: functional, cell-based
[18] = biological target: T3, Pyroglutamylated RF-amide peptide receptor (Homo sapiens); assay: Agonist activity at human GPR103 expressed in CHO cells assessed as intracellular calcium release upto 10 uM by Fluo-4 AM dye based calcium mobilization assay; assay type: functional, cell-based
[19] = biological target: Delta-type opioid receptor (Homo sapiens) (UniProt P41143); assay: Agonist activity at human DOP expressed in HEK293 cells assessed as inhibition of forskolin-induced cAMP accumulation; assay type: functional, cell-based; details: filed as agonist
[20] = biological target: KiSS-1 receptor (Homo sapiens) (UniProt Q969F8); assay: Antagonist activity at human GPR54 expressed in CHO cells assessed as intracellular calcium release upto 10 uM by Fluo-4 AM dye based calcium mobilization assay; assay type: functional, cell-based
[21] = biological target: T2, Neuropeptide FF receptor 1; assay: Displacement of [125I]-1DMeNPFF from human NPFFR1 expressed in CHO cell membrane at 0.5 uM incubated for 1 hr by Topcount counting method relative to control; assay type: cell membranes
[22] = biological target: T2, Neuropeptide FF receptor 1; assay: Antagonist activity at human NPFFR1 expressed in CHO cell membrane assessed as inhibition of NPVF induced cAMP response at 5 uM incubated for 1 hr by Topcount counting method relative to control; assay type: functional, cell membranes; design: scale not given: the % may be the effect or the level left
[23] = biological target: Kappa-type opioid receptor (Homo sapiens, UniProt P41145); assay: Partial agonist activity at human KOR expressed in HEK293 cells assessed as forskolin-induced cAMP accumulation in presence of IBMX; assay type: functional, cell-based; details: filed as partial agonist
[24] = biological target: T4, Neuropeptide FF receptor 2; assay: Antagonist potency at human NPFFR2 expressed in CHO cell membrane assessed as inhibition of NPVF induced cAMP response incubated for 1 hr by Topcount counting method; assay type: functional, cell membranes; details: read-out: pA2 (converted)
[25] = biological target: Nociceptin receptor (Homo sapiens) (UniProt P41146); assay: Agonist activity at human NOR expressed in HEK293 cells assessed as forskolin-induced cAMP accumulation; assay type: functional, cell-based
[26] = biological target: T4, Neuropeptide FF receptor 2; assay: Displacement of [125I]-1DMeNPFF from human NPFFR2 expressed in CHO cell membrane incubated for 1 hr by Topcount counting method; assay type: cell membranes
[27] = biological target: Nociceptin receptor (Homo sapiens) (UniProt P41146); assay: Partial agonist activity at human NOR expressed in HEK293 cells assessed as forskolin-induced cAMP accumulation in presence of IBMX; assay type: functional, cell-based; details: filed as partial agonist

T1 sequence (P35372 whole entry): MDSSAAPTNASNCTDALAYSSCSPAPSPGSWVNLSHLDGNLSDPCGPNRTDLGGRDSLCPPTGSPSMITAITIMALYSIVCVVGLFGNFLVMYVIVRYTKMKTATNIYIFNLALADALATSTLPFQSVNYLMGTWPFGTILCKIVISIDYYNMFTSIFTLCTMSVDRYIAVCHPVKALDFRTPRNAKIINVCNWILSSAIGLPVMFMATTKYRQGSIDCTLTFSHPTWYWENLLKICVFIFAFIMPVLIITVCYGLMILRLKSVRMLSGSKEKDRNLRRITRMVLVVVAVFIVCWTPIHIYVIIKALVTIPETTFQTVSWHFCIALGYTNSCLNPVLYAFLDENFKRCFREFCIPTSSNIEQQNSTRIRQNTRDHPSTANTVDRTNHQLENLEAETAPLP
T4 sequence (Q9Y5X5 whole entry): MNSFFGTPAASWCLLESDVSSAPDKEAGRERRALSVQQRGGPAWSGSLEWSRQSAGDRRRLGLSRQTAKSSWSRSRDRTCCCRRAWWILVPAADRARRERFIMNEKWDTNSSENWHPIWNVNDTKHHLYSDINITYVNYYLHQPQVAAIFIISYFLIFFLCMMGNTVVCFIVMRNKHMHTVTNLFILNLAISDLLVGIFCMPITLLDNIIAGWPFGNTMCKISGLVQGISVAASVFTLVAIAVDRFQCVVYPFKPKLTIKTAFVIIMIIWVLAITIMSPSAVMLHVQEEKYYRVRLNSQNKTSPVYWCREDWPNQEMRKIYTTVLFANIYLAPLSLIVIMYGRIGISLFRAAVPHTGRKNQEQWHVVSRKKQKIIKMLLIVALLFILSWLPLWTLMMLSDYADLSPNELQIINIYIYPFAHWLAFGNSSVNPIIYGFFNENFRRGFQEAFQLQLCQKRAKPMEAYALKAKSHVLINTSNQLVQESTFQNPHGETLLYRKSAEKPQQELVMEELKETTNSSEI
Sequence of KiSS-1 receptor (Homo sapiens) (Q969F8 whole entry): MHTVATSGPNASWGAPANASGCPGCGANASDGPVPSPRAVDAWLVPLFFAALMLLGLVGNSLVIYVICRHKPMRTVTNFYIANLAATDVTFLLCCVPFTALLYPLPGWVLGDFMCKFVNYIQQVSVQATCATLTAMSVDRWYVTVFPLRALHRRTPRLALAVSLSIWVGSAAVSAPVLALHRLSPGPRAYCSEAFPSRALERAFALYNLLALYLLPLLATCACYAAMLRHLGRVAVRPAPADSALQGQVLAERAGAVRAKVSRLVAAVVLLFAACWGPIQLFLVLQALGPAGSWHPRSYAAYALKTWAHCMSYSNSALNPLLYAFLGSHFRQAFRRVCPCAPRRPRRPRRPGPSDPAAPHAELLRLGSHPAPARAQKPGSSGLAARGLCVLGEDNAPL
T2 sequence (Q9GZQ6 whole entry): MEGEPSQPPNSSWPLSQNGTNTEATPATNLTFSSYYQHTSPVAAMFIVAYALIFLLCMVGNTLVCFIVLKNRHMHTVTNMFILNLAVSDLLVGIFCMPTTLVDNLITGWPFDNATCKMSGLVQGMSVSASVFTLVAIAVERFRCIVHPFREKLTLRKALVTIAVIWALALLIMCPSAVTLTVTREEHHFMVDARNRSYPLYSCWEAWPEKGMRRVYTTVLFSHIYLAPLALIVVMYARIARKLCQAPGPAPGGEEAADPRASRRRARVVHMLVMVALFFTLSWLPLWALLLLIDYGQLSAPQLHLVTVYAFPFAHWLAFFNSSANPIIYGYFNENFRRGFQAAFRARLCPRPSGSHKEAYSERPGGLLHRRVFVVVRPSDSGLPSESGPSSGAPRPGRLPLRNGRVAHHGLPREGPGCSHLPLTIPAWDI
Sequence of Nociceptin receptor (Homo sapiens) (P41146 whole entry): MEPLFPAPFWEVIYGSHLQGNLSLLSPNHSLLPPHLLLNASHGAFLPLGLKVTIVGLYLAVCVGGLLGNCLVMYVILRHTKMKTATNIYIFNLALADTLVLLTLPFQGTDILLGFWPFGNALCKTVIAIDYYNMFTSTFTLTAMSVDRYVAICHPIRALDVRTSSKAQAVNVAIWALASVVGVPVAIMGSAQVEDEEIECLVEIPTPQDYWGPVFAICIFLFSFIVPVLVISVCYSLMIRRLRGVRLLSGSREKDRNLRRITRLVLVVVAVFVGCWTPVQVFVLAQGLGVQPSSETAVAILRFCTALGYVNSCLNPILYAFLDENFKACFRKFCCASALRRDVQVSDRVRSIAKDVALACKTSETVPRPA
Sequence of Delta-type opioid receptor (Homo sapiens) (P41143 whole entry): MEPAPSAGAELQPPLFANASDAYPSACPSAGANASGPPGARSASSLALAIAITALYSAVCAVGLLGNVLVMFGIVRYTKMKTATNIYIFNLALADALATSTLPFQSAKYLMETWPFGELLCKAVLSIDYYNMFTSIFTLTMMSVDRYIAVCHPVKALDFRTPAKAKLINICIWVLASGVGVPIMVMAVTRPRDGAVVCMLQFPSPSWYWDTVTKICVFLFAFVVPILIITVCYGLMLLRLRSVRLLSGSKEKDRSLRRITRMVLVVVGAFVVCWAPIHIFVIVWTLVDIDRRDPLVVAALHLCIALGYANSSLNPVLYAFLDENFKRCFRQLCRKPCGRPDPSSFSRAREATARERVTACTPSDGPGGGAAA
Sequence of Kappa-type opioid receptor (P41145 whole entry): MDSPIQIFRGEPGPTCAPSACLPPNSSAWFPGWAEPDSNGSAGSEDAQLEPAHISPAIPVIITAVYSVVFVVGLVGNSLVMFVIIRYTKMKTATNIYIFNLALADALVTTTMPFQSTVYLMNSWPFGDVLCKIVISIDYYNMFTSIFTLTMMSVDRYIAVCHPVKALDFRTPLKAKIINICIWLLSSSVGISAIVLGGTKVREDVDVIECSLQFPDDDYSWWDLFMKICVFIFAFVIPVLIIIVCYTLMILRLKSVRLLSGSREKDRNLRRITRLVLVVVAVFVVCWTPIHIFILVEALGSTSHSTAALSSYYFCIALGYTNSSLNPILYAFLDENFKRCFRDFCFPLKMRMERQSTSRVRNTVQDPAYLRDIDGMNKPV

SMILES	EC50 (Mu-type opioid receptor [1])	half-life [2] [min]	Cmax [3] [nM]	Emax (Mu-type opioid receptor [4]) [%]	Activity [6]	Tmax [7] [min]	Kb [8] [µM]	Activity [9]	Activity (Mus musculus)	concentration at 2 h [10] [nM]	Activity [12] [%]	Activity [14]	Activity [15] [%]	Ki [16] [nM]	Activity [17]	Activity [18]	Activity [19]	Activity [20]	Activity [21] [%]	Activity [23]	also measured
Cc1cc(O)cc(C)c1C[C@H](N)C(=O)N1CCC[C@@H]1C(=O)N[C@H]1Cc2ccccc2CN(CCC(=O)N[C@@H](CCCN2CCC(Cc3ccccc3)CC2)C(=O)N[C@@H](Cc2ccccc2)C(N)=O)C1=O (H-[Dmt][dP][X1][Nva(5-(4-Bn-piperidin-1-yl))]F-NH2)	Not Active	16.8	345	50	inactive	8.34	6.31	inactive	Active	10.7	46	inactive	72	1190	inactive	inactive	Active	inactive	33	Active	Drug metabolism [5]: Metabolite_Detected; Drug metabolism [11]: Metabolite_Detected; EC50 (Mu-type opioid receptor [13]): 8 nM; Activity ([22]; filed as antagonist): 75%; Kb [24]: 380 nM; Activity [25]: inactive; Ki [26]: 29 nM
Cc1cc(O)cc(C)c1C[C@H](N)C(=O)N(C)[C@H](C)C(=O)N[C@H]1Cc2c(ccc3ccccc23)CN(CC(=O)N[C@@H](CCCN2CCC(Cc3ccccc3)CC2)C(=O)N[C@@H](Cc2ccccc2)C(N)=O)C1=O	Not Active	233	446	73	inactive	110	5.89	inactive	Active	474	80	inactive	51	1170	inactive	inactive	Active	inactive	22	Active	Activity [27]: Active; Activity [22]: 3%; Kb [24]: 102 nM; Ki [26]: 54 nM
